The nature of series [1]: Metabolites generated from hydrolyses in RLM or HLM incubations (LC-ESI-MS). Format: in vitro ADME, rat, human. As to conditions: RLM or HLM incubation, 60 minutes at 37° C. How it is done:
(§1) Male Wistar rat liver microsomes (RLM), (protein concentration: 25 mg/ml determined using the Omura and Sato method, total P450: 0.64 nmol/mg protein) were used throughout this study and prepared using an internal protocol. The cryopreserved pooled human liver microsomes (HLM), (pooled mixed sex, ten individual donors, protein concentration: 20 mg/ml, total P450: 0.36 nmol/mg) were purchased from BD Gentest™ (Woburn, Mass.) and used throughout this study.
(§2) The standard incubation mixture (1 ml final volume), was carried out in a 50 mM TRIS (Tris[hydroxymethyl]aminomethane) buffer (pH 7.4) containing 10 μl of acetonitrile (1% of total volume), and 50 μM substrate compounds. After pre-equilibration of the mixture, an appropriate volume of RLM or HLM suspension was added to give a final protein concentration of 1.0 mg/mL. The mixture was shaken for 60 minutes at 37° C. Control incubations were carried out without microsomes. Each incubation was stopped by addition of 1 ml ice-cold acetonitrile, vortexed and centrifuged at 11,000 r.p.m. for 5 min. The supernatants were analysed by LC-DAD-UV and LC-ESI-MS systems to determine the metabolic stability (% substrate residue) and the structure of metabolites respectively (Table 1).
(§3) A Shimadzu HPLC system (Shimadzu, Kyoto, Japan), consisting of two LC-10AD Vp module pumps, an SLC-10A Vp system controller, an SIL-10AD Vp autosampler, and a DGU-14-A on-line degasser were used for the analysis. Chromatographic separation was performed on a Phenomenex Luna C18(2) 150×4.6 mm (5 μm) (Phenomenex srl, Castel Bolognese, Italy) as a stationary phase protected by a C18 SecurityGuard (Phenomenex srl, Castel Bolognese, Italy). The SPD-M10Avp photodiode array detector was used to detect the analytes. LC-Solution 1.24 software was used to process the chromatograms. Aliquots (20 μL) of supernatants obtained from incubations were injected onto the HPLC system and eluted with a mobile phase (flow rate 1.0 mL/min) consisting of a A: 0.5% formic acid solution, B: acetonitrile/methanol 8:2. A Thermo Finningan LCQ Deca XP plus system equipped with a quaternary pump, a Surveyor AS autosampler, a Surveyor photodiode array detector and a vacuum degasser was used for LC/MS analyses (Thermo Electron Corporation, Waltham, Mass.). All the chromatographic separations were performed on a Phenomenex Luna C18(2)150×2 mm (4 μm) (kept at a 35° C.) as a stationary phase protected by a C18 SecurityGuard (Phenomenex srl, Castel Bolognese, Italy). Aliquots (2.0 μl) of supernatants obtained from incubations were injected onto the system and eluted with a mobile phase (flow rate 0.2 ml/min) consisting of a A: 0.2% formic acid solution, B: acetonitrile/methanol 8:2. The eluate was injected into the electrospray ion source (ESI) and MS and MS^n spectra were acquired and processed using Xcalibur® software. The operating conditions on the ion trap mass spectrometer were as follows: Positive mode, spray voltage, 5.30 kV; source current, 80 μA; capillary temperature, 350° C.; capillary voltage, 21.00 V; tube lens offset, 15.00 V; multipole 1 offset, −5.75 V; multipole 2 offset, −9.00 V; sheath gas flow (N2), 55 Auxiliary Units.

A short description of series [2]: Microsomal stability with human liver microsomes. It counts as in vitro ADME. As to conditions: 50 μM substrate, 1.0 mg/mL protein, 60 minutes at 37° C., pH 7.4. How it is done:
as §1, §2, §3
A general note: Microsomes from liver hold many membrane-bound enzymes, among them those of drug oxidation.

Series [3] relates to SH-SY5Y, HeLa. Put plainly: MTT cell proliferation assay and trypan blue count (cell viability). The settings on record: cells treated for 48 and 72 hours; read-out: IC50 values (inhibition of cellular proliferation, MTT assay and trypan blue assay). Format: cell-based. The procedure:
Cell based assays were used to evaluate the possible cytotoxic effects of some compounds. To measure cytotoxic effects two different methods were used, a MTT cell proliferation assay and trypan blue count.
The Trypan blue assay is used to determine the number of viable cells present in a cell suspension. […] Briefly, 8×10^5 cells (SH-SY5Y, HeLa; obtained from ATCC, LGC standards, Sesto San Giovanni) were seeded in 24-well plates and treated for 48 and 72 hours. After the treatments, cells were stained with trypan blue and counted.
To analyze cell viability was used the colorimetric 3-(4,5-dimethylthiazol-2-yl)-2,5-diphenyltetrazolium bromide (MTT) method. The assay is based on the cleavage of the yellow tetrazolium salt MTT to purple formazan crystals by metabolic active cells. Since reduction of MTT can only occur in metabolically active cells, the level of activity is a measure of the viability of cells and conversely the cytotoxic effects of various treatments. Briefly, 8×10^5 cells (SH-SY5Y, code number CRL-2266; and HeLa, code number CCL-2) were seeded in 24-well plates and treated for 48 and 72 hours. Compounds were dissolved in DMSO and were added to the cells to give a final DMSO concentration no greater than 0.5%. Cells were washed once in Locke buffer and 300 μl of MTT (250 μg/ml in Locke buffer) were added before returning the cells to the incubator for 1 h to allow the formation of the purple formazan crystals. After 1 h, 600 μl of isopropanol/0.1 M HCl were added to each well, and the absorbance was read at 570 nm in a plate reader (Victor3V, PerkinElmer Life Sciences). For some compounds a dose response curve and IC50 for the effects on cell viability and proliferation were calculated. Cell lines used were originally purchased from ATCC (LGC standards. Sesto San Giovanni).
To evaluate the ability of each compound to inhibit cellular proliferation, cells were seeded in 24-well plates and treated for 48 and 72 hours. After the treatments the MTT assay and trypan blue assay were performed.

Series [4] is described as follows: Microsomal stability with rat liver microsomes. Format: in vitro ADME, Male Wistar rat. As to conditions: 50 μM substrate, 1.0 mg/mL protein, 60 minutes at 37° C., pH 7.4. How it is done:
as §1, §2, §3

Series [5] concerns the target T1, NAMPT (Homo sapiens, UniProt P43490).
T1 construct: endogenous in cells; host or cells: SH-SY5Y and HeLa
Put plainly: Direct inhibition of NAMPT enzymatic activity (Cyclex NAMPT colorimetric Assay Kit). It counts as biochemical. As to conditions: as assessed with a cycling assay. The procedure:
Determination of the direct activity of compounds on NAMPT was performed using a commercial kit, Cyclex NAMPT colorimetric Assay Kit.

pIC50: −log10 of the molar value.

What is called melting point is the temperature of the solid-liquid transition.

T1 sequence (P43490 whole entry): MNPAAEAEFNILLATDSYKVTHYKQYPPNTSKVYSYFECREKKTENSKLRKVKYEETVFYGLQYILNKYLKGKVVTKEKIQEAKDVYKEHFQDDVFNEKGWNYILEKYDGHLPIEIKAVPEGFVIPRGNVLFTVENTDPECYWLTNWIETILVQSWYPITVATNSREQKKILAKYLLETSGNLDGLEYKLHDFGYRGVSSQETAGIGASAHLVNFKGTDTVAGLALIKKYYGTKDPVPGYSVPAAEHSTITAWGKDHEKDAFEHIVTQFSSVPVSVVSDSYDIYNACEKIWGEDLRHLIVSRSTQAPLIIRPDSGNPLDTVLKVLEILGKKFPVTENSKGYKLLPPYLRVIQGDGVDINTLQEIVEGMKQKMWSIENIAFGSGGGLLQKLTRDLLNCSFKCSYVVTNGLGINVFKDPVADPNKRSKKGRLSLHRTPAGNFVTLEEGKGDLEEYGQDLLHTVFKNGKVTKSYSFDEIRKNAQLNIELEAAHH

As for `O=C(NCCc1ccc(Cn2cc(-c3cccnc3)nn2)cc1)Nc1ccccc1-c1ccccc1` [1-([1,1′-biphenyl]2-yl)-3-(4-((4-(pyridin-3-yl)-1H-1,2,3-triazol-1-yl)methyl)phenethyl)urea], the “Metabolites generated from hydrolyses” value in series [1] is listed as “no”. Moreover, in series [2], the “HLM stability % substrate residue (area peak)” value is given as greater than 99%. The pIC50 in series [3] is greater than 6.52. For the same molecule, the “RLM stability % substrate residue (area peak)” value in series [4] was greater than 99%.
`O=C(NCCCCCCCn1cc(-c2cccnc2)nn1)Nc1ccccc1-c1ccccc1` [1-([1,1′-biphenyl]-2-yl)-3-(7-(4-(pyridin-3-yl)-1H-1,2,3-triazol-1-yl)heptyl)urea]: in series [5], the “inhibition of the enzymatic activity of NAMPT” value (“inhibition” for short) is “able to inhibit”. Also, the “Metabolites generated from hydrolyses” value in series [1] was “yes (traces)”. For the same molecule, the “HLM stability % substrate residue (area peak)” value in series [2] was greater than 98%. For the same molecule, in series [3], the pIC50 is greater than 6.52. Further, the “RLM stability % substrate residue (area peak)” value in series [4] is on record as greater than 95%.
In the same order, the values of `O=C(NCCCCCCCn1cc(-c2cccnc2)nn1)c1ccccc1-c1cccnc1` [2-(pyridin-3-yl)-N-(7-(4-(pyridin-3-yl)-1H-1,2,3-triazol-1-yl)heptyl)benzamide] are “able to inhibit”, “no”, greater than 96%, greater than 6.52 and greater than 99%.
As for `Cc1ccccc1-c1ccccc1C(=O)NCCCCCCCn1cc(-c2cccnc2)nn1` [2′-methyl-N-(7-(4-(pyridin-3-yl)-1H-1,2,3-triazol-1-yl)heptyl)-[1,1′-biphenyl]-2-carboxamide], the “inhibition” value in series [5] was “able to inhibit”. For the same molecule, the pIC50 in series [3] was greater than 6.52.
Consider `c1ccc(-c2ccccc2OCCc2ccc(Cn3cc(-c4cccnc4)nn3)cc2)cc1` [3-(1-(4-(2-([1,1′-biphenyl]-2-yloxy)ethyl)benzyl)-1H-1,2,3-triazol-4-yl)pyridine], for which the “Metabolites generated from hydrolyses” value in series [1] is “no”. Also, the “HLM stability % substrate residue (area peak)” value in series [2] is recorded as greater than 99%. The pIC50 in series [3] was greater than 6.52. The “RLM stability % substrate residue (area peak)” value in series [4] is recorded as greater than 97%.
`c1ccc(-c2ccccc2OCCCc2ccc(-n3cc(-c4cccnc4)nn3)cc2)cc1` [3-(1-(4-(3-([1,1′-biphenyl]-2-yloxy)propyl)phenyl)-1H-1,2,3-triazol-4-yl)pyridine] showed a melting point of 164 to 165 °C. Besides, the “Metabolites generated from hydrolyses” value in series [1] is “no”. For the same molecule, in series [2], the “HLM stability % substrate residue (area peak)” value was greater than 98%. The pIC50 in series [3] is greater than 6.52. Further, the “RLM stability % substrate residue (area peak)” value in series [4] is given as greater than 92%.
Regarding `c1ccc(-c2ccccc2-c2cn(CCCCCCCn3cc(-c4cccnc4)nn3)nn2)cc1` [3-(1-(7-(4-([1,1′-byphenyl]-2-yl)-1H-1,2,3-triazol-1-yl)heptyl)-1H-1,2,3-triazol-4-yl)pyridine], the “Metabolites generated from hydrolyses” value in series [1] is “no”. Also, the “HLM stability % substrate residue (area peak)” value in series [2] is recorded as greater than 99%. Moreover, the pIC50 in series [3] was greater than 6.52. Also, in series [4], the “RLM stability % substrate residue (area peak)” value was greater than 99%.
With `c1ccc(-c2ccccc2OCCCCCCCn2cc(-c3cccnc3)nn2)cc1` [3-(1-(7-([1,1′-biphenyl]-2-yloxy)heptyl)-1H-1,2,3-triazol-4-yl)pyridine], the “inhibition” value in series [5] was “able to inhibit”. The pIC50 in series [3] is greater than 6.52.
In the case of `c1ccc(-c2ccccc2OCCCCCCCCn2cc(-c3cccnc3)nn2)cc1` [3-(1-(8-([1,1′-biphenyl]-2-yloxy)octyl)-1H-1,2,3-triazol-4-yl)pyridine], the “inhibition” value in series [5] was “able to inhibit”. Besides, the pIC50 in series [3] was greater than 6.52.
In the case of `c1cncc(-c2cn(CCCCCCOc3ccccc3-c3cccnc3)nn2)c1` [3-(2-((6-(4-(pyridin-3-yl)-1H-1,2,3-triazol-1-yl)hexyl)oxy)phenyl)pyridine], the “inhibition” value in series [5] is “able to inhibit”. For the same molecule, the “Metabolites generated from hydrolyses” value in series [1] is listed as “no”. Moreover, the “HLM stability % substrate residue (area peak)” value in series [2] is greater than 99%. Moreover, in series [3], the pIC50 was greater than 6.52. Besides, the “RLM stability % substrate residue (area peak)” value in series [4] is greater than 95%.
For the molecule `O=C(Nc1ccccc1-c1ccccc1)OCCCCCCn1cc(-c2cccnc2)nn1` [6-(4-(pyridin-3-yl)-1H-1,2,3-triazol-1-yl)hexyl[1,1′-biphenyl]-2-ylcarbamate], the “inhibition” value in series [5] is “able to inhibit”. Moreover, the pIC50 in series [3] is greater than 6.52.
With `O=C(Nc1ccccc1-c1ccccc1)OCCCCCCCn1cc(-c2cccnc2)nn1` [7-(4-(pyridin-3-yl)-1H-1,2,3-triazol-1-yl)heptyl[1,1′-biphenyl]-2-ylcarbamate], in series [5], the “inhibition” value is recorded as “able to inhibit”. Moreover, the pIC50 in series [3] was greater than 6.52.
Turning to `O=C(Nc1ccc(CCCn2cc(-c3cccnc3)nn2)cc1)c1ccccc1-c1ccccc1` [N-(4-(3-(4-(pyridin-3-yl)-1H-1,2,3-triazol-1-yl)propyl)phenyl)-[1,1′-biphenyl]-2-carboxamide], in series [1], the “Metabolites generated from hydrolyses” value is recorded as “no”. Further, the “HLM stability % substrate residue (area peak)” value in series [2] is greater than 98%. The pIC50 in series [3] was greater than 6.52. Besides, in series [4], the “RLM stability % substrate residue (area peak)” value is greater than 99%.
Take `O=C(NCCc1ccc(Cn2cc(-c3cccnc3)nn2)cc1)c1ccccc1-c1ccccc1` [N-(4-((4-(pyridin-3-yl)-1H-1,2,3-triazol-1-yl)methyl)phenethyl)[1,1′-biphenyl]-2-carboxamide]: in series [1], the “Metabolites generated from hydrolyses” value is “no”. For the same molecule, in series [2], the “HLM stability % substrate residue (area peak)” value is on record as greater than 99%. In addition, the pIC50 in series [3] is greater than 6.52. In series [4], the “RLM stability % substrate residue (area peak)” value is reported as greater than 99%.
For `O=C(NCCCCCCn1cc(-c2cccnc2)nn1)c1ccccc1-c1ccccc1` [N-(6-(4-(pyridin-3-yl)-1H-1,2,3-triazol-1-yl)hexyl)-[1,1′-biphenyl]-2-carboxamide], the “inhibition” value in series [5] is recorded as “able to inhibit”. Further, the pIC50 in series [3] was greater than 6.52.
Turning to `O=S(=O)(NCCCCCCCCn1cc(-c2cccnc2)nn1)c1ccccc1-c1ccccc1` [N-(8-(4-(pyridin-3-yl)-1H-1,2,3-triazol-1-yl)octyl) biphenyl-2-sulfonamide], the “Metabolites generated from hydrolyses” value in series [1] is recorded as “no”. For the same molecule, the “HLM stability % substrate residue (area peak)” value in series [2] is given as greater than 99%. In series [3], the pIC50 is greater than 6.52. In series [4], the “RLM stability % substrate residue (area peak)” value was greater than 99%.
